For experiment [1], the target named is T1, endogenous hAGT in human cells (HEK 293) (Homo sapiens, UniProt P16455).
T1 construct: endogenous hAGT in human cells (HEK 293); endogenous in cells; host or cells: HEK 293
T1 sequence (P16455 1-207): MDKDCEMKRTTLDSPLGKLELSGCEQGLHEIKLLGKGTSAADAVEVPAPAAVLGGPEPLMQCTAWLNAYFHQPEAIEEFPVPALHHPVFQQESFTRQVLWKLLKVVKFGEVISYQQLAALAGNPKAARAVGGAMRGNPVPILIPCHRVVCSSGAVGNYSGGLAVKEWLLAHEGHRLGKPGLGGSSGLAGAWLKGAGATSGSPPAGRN
Briefly: Fluorescence labelling of endogenous hAGT in HEK 293 cells, confocal microscopy. Format: cell-based. As to conditions: HEK 293 cells preincubated overnight with 1 μM O6-benzylguanine before BG-AcFc. An excerpt: (C) is an overlay of the images obtained from fluorescence and light microscopy.
Images were then taken with a confocal fluorescence microscope (Ext. 492 nm; Em. 510 nm). […] This should inactivate the endogenous hAGT and therefore prevent the accumulation of the fluorescence in the nucleus. […] The substrate's emission wavelength is 519 nm (excitation at 237, 323 and 490 nm respectively).

The target in a further experiment is T2, hAGT (Homo sapiens, UniProt P16455).
T2 sequence (P16455 1-207): T1 sequence (P16455 1-207)
As to conditions: cited from earlier work.

Consider one molecule from patent publication US8367361B2, “Methods using O6-alkylguanine-DNA alkytransferase” (Ecole Polytechnique Federale de Lausanne, priority 2001, dated 2013).

The structures appear in SMILES notation.

Take `Nc1nc(OCc2ccccc2)c2nc[nH]c2n1` [O^6-benzylguanine]: the “accumulation of BG-AcFc fluorescence in the nucleus after preincubation” value in experiment [1] is on record as “no accumulation of fluorescence in the nucleus was observed”. The “second order rate constant of reaction with hAGT” value at hAGT is “approximately 10^3 sec^−1 M^−1”.
